US11419865B2, “Method for inducing a sustained immune response” (Cytocom Inc., priority 2016, dated 2022)
Where two headings read alike, the source gives them in different places.

How the values were obtained:
[1] = test system: multiple sclerosis (MS) patients; assay: double-masked, placebo-controlled crossover pilot trial on quality of life in multiple sclerosis, 80 patients; type: in vivo, human; details: 4.5 mg nightly
Source text: RESULTS: Eighty subjects with clinically definite MS were enrolled, and 60 subjects completed the trial. Ten withdrew before completing the first trial period: 8 for personal reasons, 1 for a non-MS-related adverse event, and 1 for perceived benefit. Database management errors occurred in 4 other subjects, and quality of life surveys were incomplete in 6 subjects for unknown reasons. […] LDN was associated with significant improvement on the following mental health quality of life measures: a 3.3-point improvement on the Mental Component Summary score of the Short Form-36 General Health Survey (p=0.04), a 6-point improvement on the Mental Health Inventory (p<0.01), a 1.6-point improvement on the Pain Effects Scale (p=0.04), and a 2.4-point improvement on the Perceived Deficits Questionnaire (p=0.05). […] Further studies with LDN in MS are warranted.

[2] = test system: patients diagnosed with fibromyalgia; assay: open label single center study, twenty-five fibromyalgia patients; type: in vivo, human; details: 4.5 mg
[3] = test system: diabetic neuropathy patient; assay: diabetic neuropathy case report; type: in vivo, human
Source text: person, diagnosed with diabetic neuropathy for the last six years was prescribed one or two tablets every four to six hours as needed for pain. Patient takes between 4 to 8 tablets a day.

[4] = test system: Rheumatoid Arthritis patients; assay: rheumatoid arthritis case reports; type: in vivo, human
Procedure: A person diagnosed with Rheumatoid Arthritis in 2006 and was being treated with methotrexate and plaquenil but patients continued with pain and fatigue. […]
A person diagnosed 5 years ago with RA was treated with Methotrexate 25 mg per week and Remicade 300 U every 6 weeks, the fatigue and pain continued, along with the inflammation and general weakness. Sleep disturbed nightly due to pain in my shoulders and hips. Patient felt their life was not acceptable and none of the immunosuppression drugs were helping. […] Within two weeks patient stopped even ibuprophen. Rheumatoid factor has gone from 127 to 66 in 4 months and has stayed stable. […] Occasionally patient has pain but it is easily controlled with a normal dosage of ibuprophen.
A person, diagnosed with RA in 1999 stayed very active until 2005 on a combination of Methotrexate and Prednisone but was have difficulty maintaining their business due to fatigue and severe joint pain with deformity of their hands and elbows. Patient was told to increase their does and start a second immunomodulating drug. Patient no longer wanted to continue with immunosuppression drug or steroids due to the side effects. […]; they have no pain that can't be handled with aspirin.

[5] = test system: HIV; details: 3 mg compounded, with ART, cited from earlier work
[6] = test system: Hepatitis C; assay: Hepatitis C case reports; type: in vivo, human
[7] = test system: Hashimoto's patients; assay: Hashimoto's thyroiditis case reports
Procedure: Patient was taking L-thyroxine and pain medications and 75 mg Zoloft.
Patients was taking Synthroid 150 mcg, Compounded T3 25 mcg, Progesterone 150 mg, Plus lots of supplements like Magnesium, D3, Methyl B12, Methyl folate, Selenium, E, Amino Restore, CLA, NAC, DE, Adaptacin.

[8] = test system: HIV; assay: naltrexone as adjunct therapy, 50 HIV/AIDS patients in Africa with standard of care; type: in vivo, human
Source text: Naltrexone as an adjunct therapy with HIV/AIDS patients. […] HIV disease is associated with a new constellation of problems, generally referred to as “non-AIDS morbidity”, and, in the popular press, “premature aging. […] at risk for developing a number of non-AIDS conditions, including cardiovascular disease, cancer, kidney disease, liver disease, osteopenia/osteoporosis and neurocognitive disease (collectively referred to as “serious non-AIDS events”). Malignancies associated with infections such as human papilloma virus (including uro-genital and head and neck cancers), Epstein Barr Virus (including Hodgkins disease), and hepatitis B and C (hepatocellular carcinoma), are also relatively common in HIV-infected adult. […] Subtle elevations in many of these biomarkers are associated with dramatic increases in the risk of subsequent disease, including all-cause mortality For example, as compared to a well-matched uninfected population, treated HIV-infected adults have approximately 50 to 100% higher levels of the inflammatory cytokine interleukin-6 (IL-6)^(32). […] Risk factors for impaired CD4 T-cell recovery include low pre-treatment CD4+ T cell count nadir, co-infection with other viruses such as hepatitis C, older age, and perhaps viral factors (24). […]

[9] = test system: cancer patients; assay: cancer case reports; type: in vivo, human
Procedure: person diagnosed with stage 3-stomach cancer prognosis 6 months to live on Mar. […] 28, 2007. In addition to Immediate release naltrexone patients received chemotherapy and kidney stents inserted. […].
Person diagnosed with stage 4 pleural mesothelioma in December of 2008 and patients after consult with two other doctors it was determined due to the state of the diseases and other health issues to watch the tumors and not do chemotherapy. Prognosis was 6 to 12 months. Patient started 4.5 mg nightly and received on other treatment but did change diet. […] […].
A person diagnosed with stage 4-colon cancer, 2007 which had spread to their lungs and liver, they removed 40% of their colon and began a round of chemotherapy and three surgeries removed 40% of their colon, half is their right lung and 75% of their liver. During the next 18 months received 47 weeks of chemotherapy (a combination of 4 chemo drugs at once). […].
person was diagnosed with stage 3 prostate cancer which they were originally treated for 5 years before began 3 rounds of Docetaxel (Taxotere®). They were prescribed 4.5 mg of […]

With `O=C1CC[C@@]2(O)[C@H]3Cc4ccc(O)c5c4[C@@]2(CCN3CC2CC2)[C@H]1O5` [Immediate release naltrexone, naltrexone] the “tolerability and serious adverse events” value [1] was “well tolerated, and serious adverse events did not occur”, the “improvement on the Mental Component Summary score of the Short Form-36 General Health Survey” value ([1]; 8 weeks, p=0.04) was 3.3 point and the “average improvement in FIQR in eleven patients (50%)” value [2] was 41%. For the same compound, the “additional benefits, diabetic neuropathy” value ([3]; 4.5 mg) was “resolutions of RLS”, the “pain medication use, diabetic neuropathy” value ([3]; 4.5 mg from March of 2015, within 3 days) was “cut down the number of pills in half” and the “pain medication use, diabetic neuropathy” value ([3]; 4.5 mg, within 8 weeks) was “stopped all pain medication”. The “medication use, person, Rheumatoid Arthritis” value ([4]; 1.5 mg titrated up to 4.5 mg from April of 2009) was “Successfully discontinued methotrexate March of 2010 and then discontinued plaquenil in October of 2010”, the “fatigue, person, RA” value ([4]; 4.5 mg at bedtime) was “Fatigue is gone” and the “Rheumatoid factor, person, RA” value ([4]; 4.5 mg at bedtime, from 127 in 4 months) was 66. For the same compound, the “medication use, person, RA” value ([4]; 4.5 mg at bedtime, within 7 days) was “stooped all traditional RA medications”, the “disease course, person, RA” value ([4]; 4.5 mg with diet, supplements, hormones etc., 7 years later) was “RA has not advanced” and the “improvement in CD4 count vs control group” value ([5]; at 6 months, p=0.041, 51 vs 49 subjects) was “significantly greater than the control group”. The “improvement in CD4 count vs control group” value ([5]; at 9 months, p=0.067) was “marginally”, the “Improvement in CD4%” value ([5]; throughout treatment) was “not statistically significant” and the “Viral load, person, Hepatitis C & stage 4 cirrhosis” value ([6]; 4.5 mg, by August of 2011) was 8.3 million. For the same compound, the “HCV viral load, person” value ([6]; May 2010) was 11.400, the “ultrasound and liver enzymes, person, Hepatitis C” value ([6]; all other medication stopped) was “No fatty liver, Liver enzymes dropped to normal” and the “HCV viral load, person” value ([6]; started February of 2009, May 2009, from over a million in January 2009) was 49,000. The “lab work, person, Hashimoto's” value ([7]; 1.5 mg) was “Latest lab work was normal in all areas”, the “side effect, person, Hashimoto Thyroiditis” value ([7]; 3 mg in morning and 1 mg at night) was “strange dreams” and the “TPO levels, person, Hashimoto's” value ([7]; 4.5 mg with T3/T4 capsules from August 2011, initial 350) was “returned to normal”. The “TgAb, person, Hashimoto's” value ([7]; titrated 1.5, 3, 4.5 mg, from 77) was < 1, the “inflammatory cytokine and Th1/Th2 balance” value ([8]; adjunct to standard of care (ART)) was “Secreased inflammatory cytokine and a shift from Th1 (pro-inflammatory) to Th2 (anti-inflammatory)” and the “opportunistic infection and quality of life” value ([8]; adjunct to standard of care, long term) was “reduction in opportunistic infection and a higher quality of live”. For the same compound, the “tolerance of chemotherapy, person, stage 4-colon cancer” value ([9]; 4.5 mg nightly from June of 2007 with chemotherapy) was “able to complete the entire protocol without any major side effects at all”, the “tolerance of chemotherapy, person, stage 3 prostate cancer” value ([9]; 4.5 mg nightly with 3 rounds of Docetaxel) was “able to withstand the chemotherapy and their blood work stayed stable throughout the protocol” and the “CAT scans, person, stage 4 pleural mesothelioma” value ([9]; 4.5 mg nightly, no chemotherapy, February 2009 and 2010) was “no measurable growth of tumors”. For the same compound, the “disease course, person, stage 4-colon cancer” value ([9]; 4.5 mg nightly, scans every six months) was “continued cancer free until June of 2015”, the “CT scan, person, stage 3-stomach cancer” value ([9]; 4.5 mg with chemotherapy, September 2007) was “tumors shrunk in half” and the “disease status, person, stage 3-stomach cancer” value ([9]; 4.5 mg, December of 2007) was “in remission and stable”. The “CT scan, person, stage 3-stomach cancer” value ([9]; 4.5 mg, March 2008) was “tumors had shrunk in half” and the “scan, person, stage 3-stomach cancer” value ([9]; 4.5 mg, March of 2009) was “tumors were stable”.
